Consider two molecules from patent US20100022611A1 (THE UNIVERSITY COURT OF THE UNIVERSITY OF ABERDEEN, priority 2007, published 2010).

Data set [1] concerns the target T1, CB1 receptor (Mus musculus, UniProt P47746). The experiment in a line: [35S]GTPγS binding assay in mouse brain membranes, antagonism of CP55940. The format is biochemical. Details: Whole brains from eight adult male mice were dissected and suspended in centrifugation buffer; from tissue; host or cells: mouse whole brain membranes. The text has this:
(§1) The [^35S] GTPγS binding assay is simply a means of measuring G protein activation following agonist occupation of a GPCR. The significance of replacing endogenous GTP with radiolabeled [^35S] GTPγS is two-fold. […] GTPγS. Secondly, as with any radiolabelling, the aim is to allow quantitative analysis of a selected molecular species, in this case the degree of agonist binding can be gauged by measuring the subsequent levels of radioactivity in the desired tissue.
(§2) A vehicle control was an essential aspect of the experiment. […] The vehicle is made up of 10 μL of DMSO and 990 μL of binding buffer, resulting in the assay containing 0.1% vehicle.
(§3) Buffer; [^35S] […] The GTPγS binding assay was initiated by the addition of the [^35S] GTPγS. The assay was incubated at 37° C. in a water bath for 1 hour. The assay was terminated by addition of ice-cold Tris/BSA buffer and rapid vacuum filtration using a 24-well Brandel (cell harvester) and glass-fibre filters that have been soaked in Tris/BSA buffer at 4° C. for 24 hours. Each well was washed 6 times with 1.2 mL of Tris/BSA buffer. The filters were then oven dried for 1 hour. The sections of filter papers were then separated and placed in individual vials, to which 5 mL of scintillation fluid was added. The filter papers were soaked in the scintillation fluid for 1 hour before the radioactivity in each vial was quantified by liquid scintillation spectrometry.
(§4) The data was fitted to a sigmoidal concentration-response curve using GraphPad Prism 4. Significance was defined by a one-sample t-test (GraphPad Prism 4), which compared mean % stimulation values S.E.M. to the basal binding level, 0.0% stimulation.
A general note: Binding of GTPγS marks nucleotide exchange on a G protein.

The target of data set [2] is T1, CB1 receptor. In words: [35S]GTPγS binding, compound alone (Table 2, Function). The format is biochemical. The note with it: compound alone. The arrangement: from tissue.
Source text: as §1, §2, §3, §4

The target of data set [3] is T1, CB1 receptor. The experiment in a line: Electrically-evoked contractions of mouse isolated vas deferens, antagonism of CP55940. Details: The isolated vas deferens was then removed from the mouse by cutting through its prostatic end; from tissue; host or cells: isolated vas deferens of male albino MF1 mice. An excerpt: (§5) The vas deferens (or ductus deferens) is a muscular tube, approximately 3 mm in diameter and 30 cm in length, connecting the left and right epididymis to the ejaculatory ducts in order to move sperm. It is bound by connective tissue with an ample supply of blood vessels, nerves, and lymphatics. This in vitro bioassay exploits the expression of CB1 receptors on the presynaptic nerve terminals of this tubular structure.
(§6) The animals used in the study were male albino MF1 mice bred and were housed six to eight per-cage and were kept in a temperature-controlled room which was maintained on a fixed light-dark cycle. All mice were given free access to food and water. Subjects used in the study were a minimum of four weeks of age. Each mouse was stunned by striking the back of the head and killed by dislocation of the neck (cervical vertebrae). Following the killing, the mouse body weight was determined. A transverse incision, approximately of 1.5 cm, was made in the skin with the aid of dissection scissors. A similar-sized transverse incision was made through the lower abdominal wall. […] This was used to identify the vas deferens, which is attached to the testis via the epididymis. Gripping the epididymis with forceps, the vas deferens was cut free first from the testis and then from the connective tissue. The isolated vas deferens was then removed from the mouse by cutting through its prostatic end. This procedure was repeated on the right testis. It was important that throughout the latter two stages of this dissection, care was taken to ensure the vas deferens was not overstretched. In addition to their vas deferens, these animals were euthanized for use of their brain and small intestine by fellow researchers in different research fields. This minimisation of the number of animals euthanized complied with the European Community guidelines.
(§7) During transit, the two isolated vas deferens from each mice were kept moist in a glass vial filled with warm modified Mg^2+-free Krebs' solution. Before setting the tissue up in an organ bath, further removal of connective tissue, mesentery, and the epididymis was performed; cotton thread was tied securely to both end of the vas deferens.
(§8) The one-tailed thread was attached to the Pioden UF1 isometric transducer (Harvard Apparatus) and the two-tailed thread hung out of the bottom of the bath. The latter served as an anchor point for applying tension. […] Contractile activity was recorded using the isometric transducer and the output monitored by a computer connected to the data recording and analysis system (MacLab or PowerLab). The tissues were then ready for stimulation. […]

Data set [4] has as its target T1, CB1 receptor. In words: Electrically-evoked contractions of isolated mouse vas deferens, compound alone. The arrangement: The isolated vas deferens was then removed from the mouse by cutting through its prostatic end; from tissue; host or cells: isolated vas deferens of male albino MF1 mice. The note with it: 1 μM, tested alone.
Source text: as §5, §6, §7, §8

The target of data set [5] is T2, cannabinoid CB1 receptor (Mus musculus, UniProt P47746).
T2 construct: Whole brains from eight adult male mice were dissected and suspended in centrifugation buffer; from tissue; host or cells: mouse whole brain membranes
T2 sequence (P47746 whole entry): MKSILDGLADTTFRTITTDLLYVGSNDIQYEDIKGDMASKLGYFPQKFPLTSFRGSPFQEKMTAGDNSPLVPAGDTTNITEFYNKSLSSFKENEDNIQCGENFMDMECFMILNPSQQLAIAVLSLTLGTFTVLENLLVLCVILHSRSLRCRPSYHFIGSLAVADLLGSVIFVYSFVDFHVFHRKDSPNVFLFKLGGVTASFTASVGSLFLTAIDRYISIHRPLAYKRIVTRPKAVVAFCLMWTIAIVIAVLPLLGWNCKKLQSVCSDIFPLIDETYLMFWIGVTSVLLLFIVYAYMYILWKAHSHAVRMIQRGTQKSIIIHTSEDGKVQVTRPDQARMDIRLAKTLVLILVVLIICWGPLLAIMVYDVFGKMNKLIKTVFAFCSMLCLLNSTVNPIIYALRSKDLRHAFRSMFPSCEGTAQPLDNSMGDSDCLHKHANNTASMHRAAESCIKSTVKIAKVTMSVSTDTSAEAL
The experiment in a line: Mouse brain competition binding assay, [3H]CP55940 displacement. Particulars: mouse brain membranes, [3H]CP55940 0.7 nM; read-out: Ki (nM) [affinity] Mouse Brain [3H]CP55940 Displacement. How it is done:
The competition binding assay is a […] radioligand binding assay, which determines the affinity of a given compound for a specific receptor site, in this instance, the cannabinoid CB1 receptor. Mouse brain membranes were the chosen tissue due to their high expression of CB1 receptors.
Whole brains from eight adult male mice were dissected and suspended in centrifugation buffer. The brains were then homogenised with a Polytron Homogeniser prior to centrifugation at 1,600 RCF, 4° C. for 10 minutes. Centrifugation produced a supernatant, which was collected, and then the remaining pellet was re-suspended in centrifugation buffer and centrifuged as before. All supernatants were combined, and centrifuged at 28,000 RCF, 4° C. for a further 20 minutes. The supernatant was then discarded and the pellet re-suspended in Buffer A before incubation for 10 minutes at 37° C. The membrane suspension was then centrifuged at RCF 23,000, 4° C. for 20 minutes. The pellet was then re-suspended in Buffer A and incubated for 40 minutes at room temperature. The suspension was then centrifuged for 15 minutes at RCF 11,000, 4° C., and the pellet was then re-suspended in Buffer B. Finally a Protein Assay was carried out to determine the protein content of the mouse membrane preparation. The membrane samples were then made up into 1 mL aliquots of 1 mg/mL protein concentration and stored at −80° C. The samples were removed and defrosted when they were required.
The competition binding assay utilizes standard binding buffer, comprising:
10 μL of 1 mM stock of CP55940 in DMSO was added to 990 μL of binding buffer.
This was essential to obtain a value for specific binding, which is defined as the difference between the binding that occurs in the presence and absence of […] unlabelled CP55940.
as §3, with “[^3H]” for “[^35S]”, “competition” for “GTPγS binding”, “membranes.” for “[^35S] GTPγS.”, “had” for “have”
Data were fitted to a one-site competition curve using GraphPad Prism 4.

Data set [6] addresses CB1 receptor (Homo sapiens, UniProt P21554). The experiment in a line: [35S]GTPγS binding, compound alone, 24 hours FBS-starved CB1 CHO cells. Type of data set: biochemical. Particulars: 1 nM to 10 μM.
Source text: as §1, §2, §3, §4
The vertical lines indicate S.E.M. (standard error of the mean) (*= P<0.05, **= P<0.01, ***= P<0.001, one-sample t-test) (n=4).

The conditions of data set [7]: patients, clinical trials; cited from earlier work.

T1 sequence (P47746 whole entry): as above
Chain of CB1 receptor (Homo sapiens, UniProt P21554) (P21554 whole entry): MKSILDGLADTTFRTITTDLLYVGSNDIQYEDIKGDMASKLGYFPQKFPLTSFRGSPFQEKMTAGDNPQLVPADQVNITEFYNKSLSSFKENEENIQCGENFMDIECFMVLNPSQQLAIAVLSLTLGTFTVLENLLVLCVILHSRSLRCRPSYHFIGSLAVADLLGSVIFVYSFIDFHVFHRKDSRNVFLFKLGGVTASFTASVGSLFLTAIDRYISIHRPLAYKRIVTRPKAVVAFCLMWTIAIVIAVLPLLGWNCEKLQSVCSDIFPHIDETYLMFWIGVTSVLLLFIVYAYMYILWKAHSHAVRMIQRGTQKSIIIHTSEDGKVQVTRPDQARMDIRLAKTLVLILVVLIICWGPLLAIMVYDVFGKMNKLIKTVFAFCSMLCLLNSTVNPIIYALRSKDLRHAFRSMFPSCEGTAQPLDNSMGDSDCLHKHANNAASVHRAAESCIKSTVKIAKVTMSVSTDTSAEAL

What is called Ki is the equilibrium dissociation constant of an inhibitor or competing ligand from its target. As to `Cc1c(C(=O)Cc2ccccc2)nn(-c2ccc(Cl)cc2Cl)c1-c1ccc(Cl)cc1` [ABD406], the “Shift in the log concentration response curve for CP55940, [35S]GTPγS” value in data set [1] is given as “right-ward shift”. The “Function Mouse Brain [35S]GTPγS Alone” value in data set [2] is reported as “Neutral antagonist”. The “Shift in the log concentration response curve for CP55940, vas deferens contraction” value in data set [3] is given as “right-ward shift”. The “Effect on electrically-evoked contractions of isolated mouse vas deferens” value in data set [4] is listed as “neither inhibited nor significantly enhanced”. Besides, the Ki in data set [5] was found to be 24.2 nM. The “Effect on [35S]GTPγS binding, compound alone” value in data set [6] is on record as “no reduction”.

For `Cc1c(C(=O)NN2CCCCC2)nn(-c2ccc(Cl)cc2Cl)c1-c1ccc(Cl)cc1` [SR141716A, N-(piperidin-1-yl)-5-(4-chlorophenyl)-1-(2,4-dichlorophenyl)-4-methyl-1H-pyrazole-3-carboxamide], in data set [7], the “Body weight lost each year” value is 5-10% and the “First year drop-out rate due to side effects” value is reported as 40-50%.
